Laboratory results reported in patent US10051860B2, “Plant disease controlling composition and method for controlling plant disease” (SUMITOMO CHEMICAL COMPANY, LIMITED, priority 2010, dated 2018).

Tested on: gray mold fungus (Botrytis cinerea)
Test: Cucumber leaf disk preventive test against gray mold fungus (Test Examples 1 and 2, Reference Examples)
Assay type: in vivo
Settings: 15° C., four days
Procedure: To a SUS beaker are added 30 parts of the present compound (racemate), 5 parts of Soprophor FLK (polyoxyethylene tristyrylphenyl ether phosphate, produced by Rhodia Nicca Ltd.), 65 parts of ion-exchange water and 150 parts of glass beads (1.0 mm diameter). The mixture is subjected to grinding at a velocity of 1000 rpm with cooling to 10° C., and thereafter the glass beads are separated, so as to obtain a flowable formulation comprising the present compound (racemate).
True leaf of cucumber is punched out with cork borer to 13 mm in diameter to prepare a leaf disk. In 24 well microwell plate that is dispensed with 1 ml 0.8% water agar, the leaf disk is placed such that the upper side of the leaf is in an upward direction. Thereto is added 20 micro liter a testing solution prepared by mixing the flowable formulation of the present compound (racemate) prepared by the above procedure and a commercial liquid formulation of validamycin or a commercial wettable powders of polyoxins to a predetermined concentration to treat the leaf disk.
After confirming that the testing medical solution is dried, conidium of gray mold fungus (Botrytis cinerea) is suspended into potato dextrose broth (DIFCO) in a density of about 10^5 conidium/mL and is then subjected to a spray inoculation. After leaving to stand the leaf disk in a growth chamber set up at 15° C. for four days, an onset area on the leaf is measured and then calculated an onset area rate (hereinafter, referred to as an onset area rate of treated group).
The same operation is carried out with 20 micro liter water instead of 20 micro liter a testing medicine solution to calculate an onset area rate (hereinafter, referred to an onset area rate of non-treated group).
A preventive value is calculated from the above onset area rate of treated group and the onset area rate of non-treated group by the following equation: Preventive value (%)=100×(A−B)/A
A: an onset area rate of treated group
B: an onset area rate of non-treated group
The same operations as described in Test Example 1 are carried out with kasugamycin or streptomycin instead of validamycin or polyoxins, so as to calculate respective preventive values.
Also for comparison, the same operations as described in Test Example 1 are carried out with the exception that the testing medicine solution is substituted with a predetermined concentration of either a flowable formulation of the present amide compound or a commercial wettable powder of kasugamycin or streptomycin, so as to calculate respective preventive values.
For comparison, the same operations as described in Test Example 1 are carried out with the exception that the testing medicine solution is substituted with a predetermined concentration of a solution of a wettable powder of validamycin or polyoxins, so as to calculate a preventive value.

[1] = antibiotic compound alone 0.5 ppm
[2] = antibiotic compound alone 5.0 ppm

Compound | preventive value (%) [1] [%] | preventive value (%) [2] [%]
OCC1=C[C@H](N[C@H]2C[C@H](CO)[C@@H](O[C@@H]3O[C@H](CO)[C@@H](O)[C@H](O)[C@H]3O)[C@H](O)[C@H]2O)[C@H](O)[C@@H](O)[C@@H]1O [validamycin] | 5 | 10
polyoxins | 11 | 15
[H]/N=C(/N)N[C@H]1[C@H](O)[C@@H](O)[C@H](O[C@@H]2O[C@@H](C)[C@](O)(C=O)[C@H]2O[C@@H]2O[C@@H](CO)[C@H](O)[C@@H](O)[C@@H]2NC)[C@@H](N/C(N)=N\[H])[C@@H]1O [streptomycin] | 0 | 10
C[C@H]1O[C@H](O[C@H]2[C@H](O)[C@@H](O)[C@@H](O)[C@H](O)[C@@H]2O)[C@@H](N)C[C@@H]1NC(=N)C(=O)O [kasugamycin] | 0 | 10
